Measurements as given in paper PMC10018608 (Signal Transduction and Targeted Therapy, 2023).

Target: T1, SARS-CoV-2 M^pro (Severe acute respiratory syndrome coronavirus 2, UniProt P0DTD1)
Test: Differential scanning fluorimetry (DSF) assay
Assay type: binding
Details: mean ± SD (n = 3)
Protocol: M^pro was mixed with tested compounds and 5 × SYPRO Orange dye (Sigma) avoiding from light. The thermal denaturation spectra were run from 20 °C to 95 °C at a gradient of 1.5 °C/min (CFX96, BioRad). Data were analyzed by Boltzmann model to calculate the melt temperature (Tm). The equation ΔTm = Tm(compound) − Tm(DMSO) was used to calculate the thermal shift (ΔTm). The values are presented as mean ± SD (n = 3).

For `O=C(NCc1nccs1)C(=O)[C@@H](Cc1ccccc1)NC(=O)c1ccccc1` [1a, (R)-N-(3,4-dioxo-1-phenyl-4-((thiazol-2-ylmethyl)amino)butan-2-yl)benzamide], the “thermal shift (ΔTm)” value was 8.45 ± 0.35 °C.

Target: T1, SARS-CoV-2 M^pro
Test: biochemical
Details: […]; mean ± SD from three experiments

Point of comparison: `O=C(CC1CC(F)(F)C1)NCC(=O)N[C@H](Cc1ccccc1)C(=O)C(=O)NCc1nccs1` [3q], IC50 0.0234 ± 0.0022 µM. Against it:
- O=C(CNC(=O)c1ccc(F)cc1)N[C@H](Cc1ccccc1)C(=O)C(=O)NCc1nccs1 [3m] — 15-fold higher, 0.3484 ± 0.003 µM
- COC[C@@H](NC(=O)C1CCC(F)(F)CC1)C(=O)N[C@H](Cc1ccccc1)C(=O)C(=O)NCc1nccs1 [3v] — within 1.5-fold, 0.0184 ± 0.0013 µM
- O=C(CNC(=O)C1CCC(F)(F)C1)N[C@H](Cc1ccccc1)C(=O)C(=O)NCc1nccs1 (stereo partly shown) [3p] — 2.4-fold higher, 0.0565 ± 0.0054 µM
- O=C(NCc1nccs1)C(=O)[C@@H](Cc1ccccc1)NC(=O)c1cccc(F)c1 [3b] — 20-fold higher, 0.478 ± 0.0048 µM
- O=C(COc1ccccc1)N[C@H](Cc1ccccc1)C(=O)C(=O)NCc1nccs1 [3f] — 38-fold higher, 0.8808 ± 0.0012 µM
- C[C@@H](NC(=O)C1CCC(F)(F)C1)C(=O)N[C@H](Cc1ccccc1)C(=O)C(=O)NCc1nccs1 (stereo partly shown) [3t] — within error, 0.0225 ± 0.0007 µM
- O=C(CNC(=O)C1CCCC(F)(F)C1)N[C@H](Cc1ccccc1)C(=O)C(=O)NCc1nccs1 (stereo partly shown) [3o] — 2-fold higher, 0.0458 ± 0.0021 µM
- C[C@@H](NC(=O)C1CCCC(F)(F)C1)C(=O)N[C@H](Cc1ccccc1)C(=O)C(=O)NCc1nccs1 (stereo partly shown) [3s] — within 1.5-fold, 0.0283 ± 0.0006 µM
- O=C(CNC(=O)c1ccccc1F)N[C@H](Cc1ccccc1)C(=O)C(=O)NCc1nccs1 [3k] — 43-fold higher, 0.9983 ± 0.0002 µM
- O=C(Cc1ccccc1)N[C@H](Cc1ccccc1)C(=O)C(=O)NCc1nccs1 [3d] — 41-fold higher, 0.949 ± 0.0399 µM
- O=C(CNC(=O)C1CCC(F)(F)CC1)N[C@H](Cc1ccccc1)C(=O)C(=O)NCc1nccs1 [3n] — 2.1-fold higher, 0.0503 ± 0.0026 µM
- C[C@@H](NC(=O)CC1CC(F)(F)C1)C(=O)N[C@H](Cc1ccccc1)C(=O)C(=O)NCc1nccs1 [3u] — within 1.5-fold, 0.0172 ± 0.0003 µM
- O=C(NCc1nccs1)C(=O)[C@@H](Cc1ccccc1)NC(=O)c1ccccc1F [3a, (R)-N-(3,4-dioxo-1-phenyl-4-((thiazol-2-ylmethyl)amino)butan-2-yl)-2-fluorobenzamide] — 11-fold higher, 0.264 ± 0.004 µM
- O=C(CNC(=O)c1cccc(F)c1)N[C@H](Cc1ccccc1)C(=O)C(=O)NCc1nccs1 [3l] — 23-fold higher, 0.5382 ± 0.0043 µM
- COC[C@@H](NC(=O)CC1CC(F)(F)C1)C(=O)N[C@H](Cc1ccccc1)C(=O)C(=O)NCc1nccs1 [3x] — 2.3-fold lower, 0.0102 ± 0.0001 µM

Same assay, conditions: mean ± SD from three experiments

Point of comparison: `O=C(NCc1ccco1)C(=O)[C@@H](Cc1ccccc1)NC(=O)c1ccccc1` [1c], IC50 37.2 ± 0.51 µM. Against it:
- O=C(NCc1cccs1)C(=O)[C@@H](Cc1ccccc1)NC(=O)c1ccccc1 [1b] — 2.1-fold higher, 77.3 ± 2.31 µM
- O=C(CCc1ccccc1)N[C@H](Cc1ccccc1)C(=O)C(=O)NCc1nccs1 [3e] — 30-fold lower, 1.22 ± 0.1 µM
- O=C(NCc1nccs1)C(=O)[C@@H](Cc1cccc(F)c1)NC(=O)c1ccccc1 [2b] — 15-fold lower, 2.55 ± 0.02 µM
- Cc1csc(CNC(=O)C(=O)[C@@H](Cc2ccccc2)NC(=O)c2ccccc2)n1 [1i] — within 1.5-fold, 40.7 ± 1.5 µM
- O=C(NCc1nccs1)C(=O)[C@@H](Cc1cc(F)c(F)cc1F)NC(=O)c1ccccc1 [2d] — 11-fold lower, 3.37 ± 0.18 µM
- O=C(NCc1ncco1)C(=O)[C@@H](Cc1ccccc1)NC(=O)c1ccccc1 [1d] — within 1.5-fold, 51.5 ± 0.94 µM
- O=C(NCc1nccs1)C(=O)[C@@H](Cc1ccc(F)cc1)NC(=O)c1ccccc1 [2c, (R)-N-(1-(4-fluorophenyl)-3,4-dioxo-4-((thiazol-2-ylmethyl)amino)butan-2-yl)benzamide] — 19-fold lower, 1.95 ± 0.29 µM
- O=C(NCc1nccs1)C(=O)[C@@H](Cc1ccccc1)NC(=O)c1ccccc1 [1a, (R)-N-(3,4-dioxo-1-phenyl-4-((thiazol-2-ylmethyl)amino)butan-2-yl)benzamide] — 29-fold lower, 1.3 µM
- O=C(NCc1ncon1)C(=O)[C@@H](Cc1ccccc1)NC(=O)c1ccccc1 [1g] — within 1.5-fold, 53.1 ± 3.34 µM
- O=C(NCc1nccs1)C(=O)[C@@H](Cc1cccc(Cl)c1)NC(=O)c1ccccc1 [2f] — 26-fold lower, 1.43 ± 0.15 µM
- O=C(CNC(=O)c1cccnc1)N[C@H](Cc1ccccc1)C(=O)C(=O)NCc1nccs1 [3j] — 17-fold lower, 2.23 ± 0.37 µM
- O=C(NCc1cnc(Cl)s1)C(=O)[C@@H](Cc1ccccc1)NC(=O)c1ccccc1 [1j] — 2.6-fold higher, 95.2 ± 5.99 µM
- O=C(NCc1nccs1)C(=O)[C@@H](CC1CCCCC1)NC(=O)c1ccccc1 [2e] — 3.5-fold lower, 10.5 ± 0.63 µM
- O=C(NCc1nccs1)C(=O)[C@@H](Cc1ccc(Cl)c(Cl)c1)NC(=O)c1ccccc1 [2g] — 18-fold lower, 2.03 ± 0.07 µM
- O=C(CNC(=O)c1ccccc1)N[C@H](Cc1ccccc1)C(=O)C(=O)NCc1nccs1 [3g] — 20-fold lower, 1.86 ± 0.04 µM
- O=C(NCc1nccs1)C(=O)[C@@H](Cc1ccccc1)NC(=O)c1ccc(F)cc1 [3c] — 28-fold lower, 1.31 ± 0.1 µM
- O=C(NCc1nccs1)C(=O)[C@@H](Cc1ccccc1F)NC(=O)c1ccccc1 [2a] — 11-fold lower, 3.5 ± 0.23 µM
- O=C(CNC(=O)c1cnccn1)N[C@H](Cc1ccccc1)C(=O)C(=O)NCc1nccs1 [3h] — 10-fold lower, 3.62 ± 0.27 µM
- O=C(CNC(=O)c1ccccn1)N[C@H](Cc1ccccc1)C(=O)C(=O)NCc1nccs1 [3i] — 17-fold lower, 2.24 ± 0.1 µM
- O=C(NCc1ccon1)C(=O)[C@@H](Cc1ccccc1)NC(=O)c1ccccc1 [1f] — within 1.5-fold, 54.74 ± 0.35 µM
- O=C(NCc1ncno1)C(=O)[C@@H](Cc1ccccc1)NC(=O)c1ccccc1 [1h] — 1.7-fold higher, 62.3 ± 2.07 µM

Same assay, conditions: read-out: IC50 against SARS-CoV-2 M^pro (FRET); mean ± SD from three experiments

For `O=C(NCc1cocn1)C(=O)[C@@H](Cc1ccccc1)NC(=O)c1ccccc1` [1e], the IC50 was 11.4 ± 0.08 µM.
